Experimental data taken from patent US11780841B2, “3,6-methano-1H-pyrrolo[3,2-b]pyridine and 3,6-methano-1H-pyrrolo[3,2-c]pyridine compounds and medicaments using same” (priority 2018, dated 2023).
Where two headings read alike, the source gives them in different places.

Test system: recombinant rabies virus 1088 strain expressing Gaussia Luciferase (GLuc) (1088/GLuc)
Format: cell-based

Row | SMILES | IC50 (read-out: Anti-rabies activity) | IC50 (read-out: IC50)
1 | CC(C)CCN1C[C@H]2C[C@]3(C(=O)NCc4ccc(F)cc4)NC[C@H]2[C@H]1[C@H]3CC(C)C (relative stereo) [IF-548] | 10 to 30 µM | –
2 | O=C(NCc1ccccc1)[C@]12NC[C@H]3C[C@H]1CN(Cc1cccc4ccccc14)[C@H]2[C@@H]3Cc1ccccc1 (relative stereo) [IB-42, (3S*,3aS*,6S*,7R*,7aS*)-N,7-dibenzyl-1-(naphthalen-1-ylmethyl)octahydro-3aH-3,6-methanopyrrolo[3,2-b]pyridine-3a-carboxamide] | 10 to 30 µM | –
3 | CC(C)CC[C@@H]1[C@@H]2[C@@H]3CN[C@@]1(C(=O)NCCO)C[C@@H]3CN2Cc1cccc2ccccc12 [IF-613] | 10 to 30 µM | –
4 | CC(C)C[C@@H]1[C@H]2CN[C@@]3(C(=O)NCc4ccc(F)cc4)[C@@H](C2)CN(Cc2ccc(O)cc2)[C@@H]13 [IB-499] | < 5 µM | –
5 | CC(C)CCN1C[C@H]2C[C@]3(C(=O)NCc4ccccc4)NC[C@H]2[C@H]1[C@H]3CC(C)C [IF-733] | < 5 µM | –
6 | CC(C)CC1C2C3C=NC1(C(=O)NCc1ccccc1)CC3CN2Cc1ccc(OC(F)(F)F)cc1 (centres unmarked) [IIF-96] | 5 to 10 µM | –
7 | CC(C)CN1C[C@H]2C[C@]3(C(=O)NCc4ccc(F)cc4)NC[C@H]2[C@H]1[C@H]3CCc1ccccc1 (relative stereo) [IF-525] | 10 to 30 µM | –
8 | O=C(NCc1ccc(F)cc1)[C@]12NC[C@H]3C[C@H]1CN(CCO)[C@H]2[C@@H]3Cc1cccc2ccccc12 [IB-831] | < 5 µM | –
9 | NC(=O)C[C@@H]1[C@@H]2[C@@H]3CN[C@@]1(C(=O)NCc1ccccc1)C[C@@H]3CN2CC1CCCCC1 [IF-246] | 10 to 30 µM | –
10 | CC(C)C[C@@H]1[C@H]2CN[C@@]3(C(=O)NCc4ccc5ccccc5c4)[C@@H](C2)CN(Cc2ccccc2)[C@@H]13 [IB-879] | < 5 µM | –
11 | CC(C)C[C@@H]1[C@H]2CN[C@@]3(C(=O)NCc4cccc(O)c4)[C@@H](C2)CN(Cc2ccc(N(C)C)cc2)[C@@H]13 (relative stereo) [IB-891] | 10 to 30 µM | –
12 | CC(C)CN1C[C@H]2C[C@]3(C(=O)NCCC(=O)O)NC[C@H]2[C@H]1[C@H]3Cc1cccc2ccccc12 [IF-428] | 10 to 30 µM | –
13 | CCCCCCNC(=O)[C@@]12C[C@@H]3CN(CCC(C)C)[C@@H]([C@@H]3CN1)[C@H]2CC(C)C (relative stereo) [IF-546] | 10 to 30 µM | –
14 | O=C(O)CCN1CC2CC3CNC2(C(=O)NCc2ccc(O)cc2)C1C3CCc1ccccc1 (centres unmarked) [IB-515] | 10 to 30 µM | –
15 | CC(C)CC[C@@H]1[C@H]2CN[C@@]3(C(=O)NCCCNC(=N)N)[C@@H](C2)CN(Cc2cccc4ccccc24)[C@@H]13 [IB-353] | < 5 µM | –
16 | CC(C)CNC(=O)[C@]12NC[C@H]3C[C@H]1CN(Cc1ccccc1)[C@H]2[C@@H]3CCCNC(=N)N [IB-198] | 10 to 30 µM | –
17 | CC(C)CNC(=O)C12NCC3CC1CN(CCC(=O)O)C2C3Cc1cccc2ccccc12 (centres unmarked) [IB-575] | 10 to 30 µM | –
18 | CC(C)CC[C@@H]1[C@H]2CN[C@@]3(C(=O)NCCc4ccccc4)[C@@H](C2)CN(CC(N)=O)[C@@H]13 [IB-89] | < 5 µM | –
19 | CC(C)CNC(=O)[C@]12NC[C@H]3C[C@H]1CN(Cc1ccc(F)cc1)[C@H]2[C@@H]3CCc1ccccc1 [IB-774] | < 5 µM | –
20 | O=C(NCc1ccc(O)cc1)[C@@]12C[C@@H]3CN(Cc4ccccc4)[C@@H]([C@@H]3CN1)[C@H]2Cc1ccccc1 [IF-494] | 10 to 30 µM | –
21 | CC(C)CCNC(=O)[C@]12NC[C@H]3C[C@H]1CN(CCO)[C@H]2[C@@H]3Cc1cccc2ccccc12 [IB-727] | < 5 µM | –
22 | CC(C)CC[C@@H]1[C@@H]2[C@@H]3CN[C@@]1(C(=O)NCc1ccccc1)C[C@@H]3CN2CC1CCCCC1 [IF-740] | 10 to 30 µM | –
23 | CC(C)CC1C2CNC3(C(=O)NCc4cccc5ccccc45)C(C2)CN(CCO)C13 (centres unmarked) [IB-585] | 10 to 30 µM | –

Row | SMILES | IC50 (read-out: Anti-rabies activity) | IC50 (read-out: IC50)
24 | CC(C)CC1C2CNC3(C(=O)NCc4ccc(O)cc4)C(C2)CN(CC2CCCCC2)C13 (centres unmarked) [IB-581] | 10 to 30 µM | –
25 | CC(C)CC[C@@H]1[C@H]2CN[C@@]3(C(=O)NCCO)[C@@H](C2)CN(CCc2ccccc2)[C@@H]13 [IB-461] | 10 to 30 µM | –
26 | CC(C)CCN1C[C@@H]2C[C@@H]3CN[C@]2(C(=O)NCCO)[C@@H]1[C@@H]3Cc1cccc2ccccc12 [IB-659] | < 5 µM | –
27 | CC(C)CC[C@@H]1[C@H]2CN[C@@]3(C(=O)NCc4ccccc4)[C@@H](C2)CN(Cc2ccc(O)cc2)[C@@H]13 [IB-786] | 10 to 30 µM | –
28 | CC(C)CNC(=O)[C@]12NC[C@H]3C[C@H]1CN(CCO)[C@H]2[C@@H]3Cc1cccc2ccccc12 [IB-621] | < 5 µM | –
29 | CC(C)CC[C@@H]1[C@@H]2[C@@H]3CN[C@@]1(C(=O)NCCc1ccccc1)C[C@@H]3CN2Cc1ccccc1 [IF-723] | 10 to 30 µM | –
30 | O=C(NCc1ccc(O)cc1)[C@]12NC[C@H]3C[C@H]1CN(Cc1cccc4ccccc14)[C@H]2[C@@H]3Cc1cccc2ccccc12 [IB-417] | 10 to 30 µM | –
31 | NC(=O)C[C@@H]1[C@@H]2[C@@H]3CN[C@@]1(C(=O)NCCc1ccccc1)C[C@@H]3CN2CC1CCCCC1 [IF-251] | 10 to 30 µM | –
32 | CC(C)CCN1CC2CC3(C(=O)NCc4ccc(F)cc4)N=CC2C1C3CC(C)C (centres unmarked) [IIF-104] | 5 to 10 µM | –
33 | CCCCCCNC(=O)[C@]12NC[C@H]3C[C@H]1CN(Cc1ccc(F)cc1)[C@H]2[C@@H]3Cc1ccc(O)cc1 [IB-656] | < 5 µM | –
34 | CC(C)CNC(=O)[C@]12NC[C@H]3C[C@H]1CN(Cc1ccc(F)cc1)[C@H]2[C@@H]3CC(C)C [IB-630] | < 5 µM | –
35 | O=C(O)CCNC(=O)[C@]12NC[C@H]3C[C@H]1CN(Cc1ccccc1)[C@H]2[C@@H]3Cc1cccc2ccccc12 [IB-616] | 10 to 30 µM | –
36 | CC(C)CC1C2C3C=NC1(C(=O)NCc1ccc4ccccc4c1)CC3CN2Cc1ccccc1 (centres unmarked) [IIF-102] | < 5 µM | –
37 | O=C(NCCO)[C@]12NC[C@H]3C[C@H]1CN(Cc1ccccc1)[C@H]2[C@@H]3Cc1ccccc1 [IB-676] | 10 to 30 µM | –
38 | N=C(N)NCCC[C@@H]1[C@H]2CN[C@@]3(C(=O)NCCc4ccccc4)[C@@H](C2)CN(Cc2ccc(F)cc2)[C@@H]13 [IB-262] | 10 to 30 µM | –
39 | O=C(O)CC[C@@H]1[C@@H]2[C@@H]3CN[C@@]1(C(=O)NCc1ccc(O)cc1)C[C@@H]3CN2CC1CCCCC1 [IF-447] | 10 to 30 µM | –
40 | CCCCCCNC(=O)[C@]12NC[C@H]3C[C@H]1CN(CC(N)=O)[C@H]2[C@@H]3CCc1ccccc1 [IB-109] | 10 to 30 µM | –
41 | CC(C)CC1C2CNC3(C(=O)NCCc4ccccc4)C(C2)CN(Cc2ccc(O)cc2)C13 (centres unmarked) [IB-540] | 10 to 30 µM | –
42 | CC(C)C[C@@H]1[C@@H]2[C@@H]3CN[C@@]1(C(=O)NCc1ccccc1)C[C@@H]3CN2CCc1ccccc1 [IF-639] | < 5 µM | –
43 | CC(C)C[C@@H]1[C@@H]2[C@@H]3CN[C@@]1(C(=O)NCc1ccccc1)C[C@@H]3CN2Cc1ccc(N(C)C)cc1 [IF-848] | 5 to 10 µM | –
44 | N=C(N)NCCC[C@@H]1[C@H]2CN[C@@]3(C(=O)NCCc4ccccc4)[C@@H](C2)CN(Cc2ccccc2)[C@@H]13 [IB-247] | 10 to 30 µM | –
45 | CC(C)CCN1CC2CC3C=NC2(C(=O)NCc2ccc(Cl)cc2)C1C3CC(C)C (centres unmarked) [IIB-103] | 5 to 10 µM | –
46 | CC(C)C[C@@H]1[C@@H]2[C@@H]3CN[C@@]1(C(=O)NCc1ccccc1)C[C@@H]3CN2CC1CCCCC1 [IF-644] | < 5 µM | –

Row | SMILES | IC50 (read-out: Anti-rabies activity) | IC50 (read-out: IC50)
47 | CC(C)CCN1C[C@@H]2C[C@H]3CN[C@]2(C(=O)NCc2ccccc2)[C@@H]1[C@@H]3Cc1ccccc1 (relative stereo) [IB-9] | 10 to 30 µM | 17 µM
48 | CC(C)C[C@@H]1[C@H]2CN[C@@]3(C(=O)NCc4ccccc4)[C@@H](C2)CN(Cc2cccc(Cl)c2)[C@@H]13 [IB-865] | 5 to 10 µM | –
49 | O=C(NCc1ccc(F)cc1)[C@@]12C[C@@H]3CN(CCO)[C@@H]([C@@H]3CN1)[C@H]2CCc1ccccc1 (relative stereo) [IF-516] | < 5 µM | –
50 | CC(C)CNC(=O)[C@@]12C[C@@H]3CN(Cc4cccc5ccccc45)[C@@H]([C@@H]3CN1)[C@H]2CCCNC(=N)N [IF-235] | 10 to 30 µM | –
51 | CC(C)CC1C2CNC3(C(=O)NCCC(N)=O)C(C2)CN(Cc2cccc4ccccc24)C13 (centres unmarked) [IB-520] | < 5 µM | –
52 | CC(C)CCNC(=O)[C@@]12C[C@@H]3CN(Cc4ccc(F)cc4)[C@@H]([C@@H]3CN1)[C@H]2Cc1ccccc1 (relative stereo) [IF-584] | < 5 µM | –
53 | NC(=O)CCNC(=O)[C@]12NC[C@H]3C[C@H]1CN(Cc1ccccc1)[C@H]2[C@@H]3Cc1ccccc1 [IB-734] | 10 to 30 µM | –
54 | CC(C)CCNC(=O)[C@]12NC[C@H]3C[C@H]1CN(CC(C)C)[C@H]2[C@@H]3Cc1ccccc1 [IB-780] | < 5 µM | –
55 | CC(C)CC1C2C=NC3(C(=O)NCc4ccccc4)C(C2)CN(Cc2ccc(C(C)(C)C)cc2)C13 (centres unmarked) [IIB-95] | 5 to 10 µM | –
56 | CC(C)CCNC(=O)[C@]12NC[C@H]3C[C@H]1CN(Cc1ccc(O)cc1)[C@H]2[C@@H]3CC(C)C [IB-739] | 10 to 30 µM | –
57 | CCCCCCNC(=O)[C@@]12C[C@@H]3CN(Cc4ccccc4)[C@@H]([C@@H]3CN1)[C@H]2CC(C)C (relative stereo) [IF-560] | < 5 µM | –
58 | CC(C)CC[C@@H]1[C@H]2CN[C@@]3(C(=O)NCc4cccc5ccccc45)[C@@H](C2)CN(CCC(=O)O)[C@@H]13 [IB-398] | 10 to 30 µM | –
59 | O=C(NCCO)C12NCC3CC1CN(Cc1cccc4ccccc14)C2C3Cc1ccccc1 (centres unmarked) [IB-588] | < 5 µM | –
60 | CC(C)CC[C@@H]1[C@@H]2[C@@H]3CN[C@@]1(C(=O)NCc1cccc4ccccc14)C[C@@H]3CN2CCC(=O)O [IF-422] | 10 to 30 µM | –
61 | O=C(O)CCN1C[C@H]2C[C@]3(C(=O)NCCO)NC[C@H]2[C@H]1[C@H]3Cc1cccc2ccccc12 [IF-452] | 10 to 30 µM | –
62 | CC(C)CCNC(=O)[C@@]12C[C@@H]3CN(CC(C)C)[C@@H]([C@@H]3CN1)[C@H]2Cc1cccc2ccccc12 [IF-674] | 10 to 30 µM | –
63 | CC(C)C[C@@H]1[C@@H]2[C@@H]3CN[C@@]1(C(=O)NCc1ccc4ccccc4c1)C[C@@H]3CN2Cc1ccccc1 [IF-854] | 5 to 10 µM | –
64 | O=C(O)CC[C@@H]1[C@@H]2[C@@H]3CN[C@@]1(C(=O)NCc1cccc4ccccc14)C[C@@H]3CN2CC1CCCCC1 [IF-419] | 10 to 30 µM | –
65 | CC(C)C[C@@H]1[C@H]2CN[C@@]3(C(=O)NCCc4ccccc4)[C@@H](C2)CN(CC(C)C)[C@@H]13 [IB-495] | < 5 µM | –
66 | CC(C)C[C@@H]1[C@H]2CN[C@@]3(C(=O)NCCO)[C@@H](C2)CN(Cc2ccc(F)cc2)[C@@H]13 [IB-650] | 10 to 30 µM | –
67 | CC(C)CCN1C[C@H]2C[C@]3(C(=O)NCC(C)C)NC[C@H]2[C@H]1[C@H]3Cc1ccccc1 [IF-735] | 10 to 30 µM | –
